# Counter-ions that a name gives are not always drawn. Like-named read-outs stand apart in the source and are kept apart here.
# Key:
# [1] = pH range from 3 to 10 investigated; EP 1 479 389 A1; cited from earlier work
# [2] = Concentration at which gemcitabine hydrochloride forms a clear solution at room temperature; format: physicochemical
# Experimental: At room temperature, gemcitabine hydrochloride forms a clear solution at a concentration of about 40 mg/milliliter in a strong, aqueous hydrochloric acid solution (pH approximately 3, reconstituted Gemzar® lyophilisate, Eli Lilly) or at a concentration of about 15 mg/mL in an aqueous, weakly alkaline solution having a pH of about 8, and at a concentration of up to 110 mg/mL in an alkaline, ethanolic, aqueous solution with a pH of approximately 10.
# [3] = room temperature; strong, aqueous hydrochloric acid solution, pH approximately 3, reconstituted Gemzar lyophilisate; cited from earlier work
"Concentration forming a clear solution ([2]; alkaline, ethanolic, aqueous solution, pH of approximately 10)","Concentration forming a clear solution ([2]; aqueous, weakly alkaline solution, pH of about 8)",Structure (SMILES),pH described as optimum for stability in aqueous solution [1],Concentration forming a clear solution [3]
,,"Nc1ccn([C@@H]2O[C@H](CO)[C@@H](O)C2(F)F)c(=O)n1 [gemcitabine, 2′-deoxy-2′,2′-difluorocytidine]",about 8,
up to 110 mg/mL,about 15 mg/mL,Nc1ccn([C@@H]2O[C@H](CO)[C@@H](O)C2(F)F)c(=O)n1 [gemcitabine hydrochloride],,about 40 mg/milliliter

# From patent US20060154891A1, “Ready-to-use gemcitabine solutions and gemcitabin concentrates” (priority 2004, published 2006)
